Source: patent US20190256499A1, “SUBSTITUTED QUINOXALINE DERIVATIVES AS INHIBITORS OF PFKFB” (priority 2016, published 2019)
In brackets after ≈: the same amount, converted by molar mass.

Key:
[1] = Solubility PBS (thermodynamic solubility, shake flask method); assay type: physicochemical; details: phosphate buffer (PBS), aqueous buffer, thermodynamic from solid, PBS pH 7.4, 24 hours at 37° C.
Procedure: The method involves dissolving the test compound in a solvent at a constant temperature followed by HPLC determination of the concentration of the solute in the solution, which must not contain any undissolved particles.
Phosphate Buffer pH 7.4 is prepared by using 50 mL monobasic potassium phosphate solution 0.2 M in a 200-mL volumetric flask and adding 39.1 mL of sodium hydroxide solution 0.2 M and then adding water to volume.
Standard solution is prepared by weighing in a standard compound (about 1 mg) into a flask and dissolved completely in a solution of acetonitrile/methanol (1:1; V/V).
The sample of the test compound (about 2-3 mg) is weighed into a Uniprep® syringeless filter (5 mL; 0.45 μm), the 2 mL of solvent is added and the mixture is agitated for 24 hours at 37° C. The suspension is filtered after 24 hours and the concentration of dissolved substance is determined by HPLC. The result is stated as >x μg/mL, calculated from the sample weight taken and the volume of solvent used
Eluent A: Ultrapure water/Formic acid GR for analysis (999:1, V/V) Eluent B: Acetonitrile/Formic acid GR for analysis (999:1, V/V)
The result is determined quantitatively based on the external standard method through integration of the peak areas with reference to the figures obtained for the standard substance.
L[μg/mL]=a(A)*c(S)*F(A)/a(S)*F(S) Calculation: • a (A)=peak area for analyte/mL • a (S)=peak area for standard/mL • c (S)=concentration of standard (μg/mL) • F (A)=dilution factor for analyte • F (S)=dilution factor for standard

[2] = Microsomal stability (intrinsic clearance), human liver microsomes; assay type: in vitro ADME; design: microsomal CLint: dose or concentration left out as unconfirmed; details: human, liver microsomes, pH 7.4, human liver microsomes
Text: A microsomal stability assay is used to measure in vitro clearance (Clint). The assay involves measuring the rate of disappearance of a compound due to its intrinsic attitude to be metabolized (“intrinsic” meaning that the disappearance is not affected by other properties like permeability, binding etc. that play a role when quantifying in vivo clearance). The microsomal stability (intrinsic clearance, Clint) and thus metabolic stability is generally given as μl/min/mg protein. It can be visualized as the volume of solution that 1 mg of microsomes is able to clear of the compound in one minute.
A Tecan Genesis workstation (RSP 150/8) was used for to perform the microsomal incubations. Analysis was carried out using a Waters ACQUITY UPLC system coupled to an ABSciex API3000 mass spectrometer. Data analysis was performed using Assay Explorer (Symyx).
Mobile phases: A=0.1% formic acid in water; B=acetonitrile
Flow rate: 0.750 mL/min; Detection: ESI, MRM; Injection: 10 μL; Column temperature: 50° C.
Potassium phosphate buffer: 0.05 M potassium phosphate buffer pH 7.4 containing 1 mM MgCl2 NADPH (nicotinamide adenine dinucleotide phosphate): 22.5 mg NADPH-Na4 in 1.8 ml potassium phosphate buffer Acetonitrile: 50 Vol % acetonitrile (1 volume acetonitrile, 1 volume water) DMSO: 20 Vol % DMSO in water Stock solution of 20 mg/ml human or mouse liver microsomes (protein)/ml in phosphate buffer Stock solution of 10 mM compound in 100% DMSO

[3] = target: T1, Human recombinant His-tagged PFKFB3 (Homo sapiens, UniProt Q16875); assay: PFKFB3 IC50 determination assay (modified ADP-Glo in vitro kinase assay); assay type: biochemical; details: human recombinant PFKFB3 25 nM, ATP 20 μM, fructose-6-phosphate 2 μM, 2 h, rt; read-out: PFKFB IC50
T1 construct: His; made in house
T1 sequence (Q16875 whole entry): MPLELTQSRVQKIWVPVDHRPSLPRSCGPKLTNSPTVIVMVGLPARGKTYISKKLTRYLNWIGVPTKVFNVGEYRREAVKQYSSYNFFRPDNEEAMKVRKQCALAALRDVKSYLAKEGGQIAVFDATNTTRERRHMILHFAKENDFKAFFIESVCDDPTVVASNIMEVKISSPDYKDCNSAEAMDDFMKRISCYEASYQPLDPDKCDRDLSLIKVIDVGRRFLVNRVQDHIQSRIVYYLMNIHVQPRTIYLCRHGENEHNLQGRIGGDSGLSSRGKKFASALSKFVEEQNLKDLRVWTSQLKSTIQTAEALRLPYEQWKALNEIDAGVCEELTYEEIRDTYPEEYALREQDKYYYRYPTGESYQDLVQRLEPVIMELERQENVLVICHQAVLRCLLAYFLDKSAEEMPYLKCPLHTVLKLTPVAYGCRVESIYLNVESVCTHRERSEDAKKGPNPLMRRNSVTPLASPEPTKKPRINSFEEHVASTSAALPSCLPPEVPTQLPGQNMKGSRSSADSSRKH
Procedure: In vitro kinase assay used to determine IC50 values for tested inhibitors is based on a modified ADP-Glo™ system (Promega) and consists of two parts:
1. Kinase reaction—performed in optimized conditions. At this step PFKFB3 phosphorylates its substrate fructose-6-phosphate using ATP as a source of phosphate to produce fructose-2,6-bisphosphate and ADP. Reaction is performed at Km values for ATP and substrate using optimized buffer composition and time of the reaction. Human recombinant His-tagged PFKFB3 (PFKFB3 BATCH II SEC) with confirmed activity is produced and purified in-house. 2. Detection of ADP as a product of the reaction using ADP-Glo™ system. This part is conducted by using the commercially available kit ADP-Glo™ Kinase Assay (Promega, cat. No# V9103) according to manufacturer's instruction, modified by 5× dilutions of assay reagents (both ADP-Glo™ Reagent and Kinase Detection Solution). Reproducibility and reliability of this modification is confirmed in an optimization process.
Test compounds are dissolved in DMSO and then transferred to the V-bottom 96-well plate. For IC50 determination ten 10× serial dilutions starting from 100 μM are prepared.
Two mixes are prepared on ice: Mix 1—containing appropriate kinase amount in 2× reaction buffer (100 mM TRIS pH 8.0) and Mix 2—containing 2.31× concentrated substrate (Fructose-6-phosphate) and ATP in MilliQ water. 15 μL per well of Mix 1 is transferred to assay wells of 96-well white plate. Next, 2 μl of 15× concentrated test compound in DMSO is added to Mix 1 for 20 min pre-incubation, followed by addition of Mix 2 (13 μl/well). Total reaction volume is 30 μL per well. Samples are tested in duplicates. Final concentration of DMSO in the reaction is 6.7%. Conditions needed for performing PFKFB3 (PFKFB3 BATCH II SEC) in vitro kinase assay are given below:
This protocol is based on Technical Bulletin, ADP-Glo™ Kinase Assay (Promega) and is adapted to 96-well plate containing 30 μL reaction mixture:
30 μL of 5× diluted ADP-Glo™ Reagent is added to each well of 96-well plate containing 30 μL of reaction mixture. The plate is incubated for 90 minutes on a shaker at rt. 60 μL of 5× diluted Kinase Detection Solution is added to each well of 96-well plate containing 60 μL of the solution (ratio of kinase reaction volume to ADP-Glo™ Reagent volume to Kinase Detection Solution volume is maintained at 1:1:2). Plate is incubated for 40 minutes on a shaker at rt, protected from light. Luminescence is measured in the plate reader Synergy 2 (BioTek).
Luminescent readouts for compounds tested in 10 concentrations (routinely from 100 μM to […], […] serial dilutions) in duplicates, as well as for positive control, are first normalized to no-substrate negative control by its subtraction. In the next step, % of normalized positive control is calculated for each data point and plotted against test compound concentration:
% of control—percent of positive control normalized to no-substrate negative control Lumcpd—luminescence of test compound Lumneg—luminescence of no-substrate negative control Lumpos—luminescence of positive control
IC50 parameter is determined by the GraphPad Prism 5.0 software [log(inhibitor) vs. response—Variable slope (four parameters)].

| SMILES | solubility at 24 h [1] | microsomal CLint [2] | IC50 [3] |
| --- | --- | --- | --- |
| Cn1ccc2ccc(-c3cc(NC(c4cccnc4)c4ccc(=O)[nH]n4)cc4nccnc34)cc21 (single isomer, unassigned) [Example 2] | 10 µg/mL (≈ 21.8 µM) | 78 µL/min/mg | 28 nM |
| COc1ccc([C@@H](Nc2cc(-c3ccc4ccn(C)c4c3)c3nccnc3c2)c2cccnc2)nn1 (single isomer, unassigned) [Example 5] | 4 µg/mL (≈ 8.45 µM) | 264 µL/min/mg | 8 nM |
| Cn1cc([C@H](Nc2cc(-c3ccc4ccn(C)c4c3)c3nccnc3c2)c2cnnn2C)cn1 (single isomer, unassigned) [Example 8] | 80 µg/mL (≈ 178 µM) | 50 µL/min/mg | 5.2 nM |
| Cn1cc([C@H](Nc2cc(-c3ccc4ccn(C)c4c3)c3nccnc3c2)c2cncn2C)cn1 (single isomer, unassigned) [Example 11] | 4 µg/mL (≈ 8.92 µM) | 130 µL/min/mg | 14 nM |
| COc1ccc([C@@H](Nc2cc(-c3ccc4ccn(C)c4c3)c3nccnc3c2)c2cccnc2)cn1 [Comparative Example 4, [(S)-(6-methoxy-pyridin-3-yl)-pyridin-3-yl-methyl]-[8-(1-methyl-1H-indol-6-yl)-quinoxalin-6-yl]-amine, reference compound] | 1 µg/mL (≈ 2.12 µM) | 214 µL/min/mg | 9.9 nM |
